The text below walks through data of patent publication US4370326A, “Cephem compounds and composition” (Fujisawa Pharmaceutical Co., Ltd., priority 1977, dated 1983).

Values after ≈ are worked out from the molar mass of the structure shown.

Holding throughout (assay): In vitro antibacterial activity, two-fold agar-plate dilution method
Common to all, as to format: cell-based

One assay has as its system Escherichia coli 324. The settings on record: heart infusion agar, 37° C., 20 hours, 10^8 viable cells per ml, read-out: minimal inhibitory concentration (MIC). The procedure:
(§1) In vitro antibacterial activity was determined by the two-fold agar-plate dilution method as described below. One loopful of an overnight culture of each test strain in Trypticase-soy broth (10^8 viable cells per ml.) was streaked on heart infusion agar (HI-agar) containing graded concentrations of antibiotics, and the minimal inhibitory concentration (MIC) was expressed in terms of μg/ml. after incubation at 37° C. for 20 hours. [drawing 15]

The test system of another assay is Klebsiella aerogenes 417. Conditions: heart infusion agar, 37° C., 20 hours, 10^8 viable cells per ml, read-out: minimal inhibitory concentration (MIC). The protocol:
as §1

The next assay has as its system Proteus mirabilis 520. The settings on record: heart infusion agar, 37° C., 20 hours, 10^8 viable cells per ml, read-out: minimal inhibitory concentration (MIC). The protocol: as §1
For the next assay, the system named is Proteus vulgaris 616. Conditions: heart infusion agar, 37° C., 20 hours, 10^8 viable cells per ml, read-out: minimal inhibitory concentration (MIC). The protocol:
as §1

The next assay has as its system Salmonella enteritidis. Conditions: Salmonella enterica, heart infusion agar, 37° C., 20 hours, 10^8 viable cells per ml, read-out: minimal inhibitory concentration (MIC). The procedure: as §1

Take `Nc1nc(CC(=O)NC2C(=O)N3C(C(=O)O)=CCSC23)cs1` (centres unmarked) [Compound 2]: the MIC was 1.56 µg/mL (≈ 4.58 µM) in the assay on Escherichia coli 324; 0.2 µg/mL (≈ 0.588 µM) in the assay on Klebsiella aerogenes 417; 0.39 µg/mL (≈ 1.15 µM) with Proteus mirabilis 520; 6.25 µg/mL (≈ 18.4 µM) in the assay on Proteus vulgaris 616; 1.56 µg/mL (≈ 4.58 µM) with Salmonella enteritidis.

`Nc1nc(C(O)C(=O)NC2C(=O)N3C(C(=O)O)=CCSC23)cs1` (centres unmarked) [Compound 4]: the MIC was found to be 1.56 µg/mL (≈ 4.38 µM) with Escherichia coli 324; 0.78 µg/mL (≈ 2.19 µM) in the assay with Klebsiella aerogenes 417; 1.56 µg/mL (≈ 4.38 µM) in the assay on Proteus mirabilis 520; 12.5 µg/mL (≈ 35.1 µM) in the assay with Proteus vulgaris 616; 3.13 µg/mL (≈ 8.78 µM) in the assay on Salmonella enteritidis.

Regarding `Nc1nc(C(N)C(=O)NC2C(=O)N3C(C(=O)O)=CCSC23)cs1` (centres unmarked) [Compound 3], the MIC came to 0.78 µg/mL (≈ 2.19 µM) with Escherichia coli 324; 0.39 µg/mL (≈ 1.1 µM) in the assay with Klebsiella aerogenes 417; 0.78 µg/mL (≈ 2.19 µM) in the assay with Proteus mirabilis 520; 1.56 µg/mL (≈ 4.39 µM) in the assay with Proteus vulgaris 616; 3.13 µg/mL (≈ 8.81 µM) in the assay on Salmonella enteritidis.

Consider `Nc1nc(C(=O)C(=O)NC2C(=O)N3C(C(=O)O)=CCSC23)cs1` (centres unmarked) [Compound 1], for which the MIC in the assay on Escherichia coli 324 worked out at 1.56 µg/mL (≈ 4.4 µM); in the assay with Klebsiella aerogenes 417 it was 0.1 µg/mL (≈ 0.282 µM); in the assay on Proteus mirabilis 520, 0.78 µg/mL (≈ 2.2 µM); in the assay with Proteus vulgaris 616, 12.5 µg/mL (≈ 35.3 µM); in the assay on Salmonella enteritidis, 1.56 µg/mL (≈ 4.4 µM).
